Measured values taken from the supplement of paper PMC10307832.

Tests used:
Experiment in all cases: relative viability (nuclei count vs DMSO), 5 days (fraction); higher = more cells survive
RAF265 + Olaparib = compound: Cn1c(Nc2ccc(C(F)(F)F)cc2)nc2cc(Oc3ccnc(-c4ncc(C(F)(F)F)[nH]4)c3)ccc21 [RAF265] + O=C(c1cc(Cc2n[nH]c(=O)c3ccccc23)ccc1F)N1CCN(C(=O)C2CC2)CC1 [Olaparib] (partner 8 µM)
Summary of the method: (§1)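 Values are medians from duplicate plates. Each reflects relative viability, defined as the nuclei count of treated wells over that of vehicle wells. Lung cancer cell lines in 1536-well plates were pin-tool dosed one day after seeding with one drug alone or with a fixed anchor-drug dose plus five library-drug doses (not always all listed) in √10 steps, then fixed, stained and imaged at 4× after 5 days.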

Doramapimod + AZD7762 = compound: Cc1ccc(-n2nc(C(C)(C)C)cc2NC(=O)Nc2ccc(OCCN3CCOCC3)c3ccccc23)cc1 [Doramapimod] + NC(=O)Nc1cc(-c2cccc(F)c2)sc1C(=O)N[C@H]1CCCNC1 [AZD7762] (partner 0.2 µM)
Summary of the method: as §1

IPA-3 + Dasatinib = compound: C1=CC=C2C(=C1)C=CC(=C2SSC3=C(C=CC4=CC=CC=C43)O)O [IPA-3] + Cc1nc(Nc2ncc(C(=O)Nc3c(C)cccc3Cl)s2)cc(N2CCN(CCO)CC2)n1 [Dasatinib] (partner 0.075 µM)
Summary of the method: as §1

IPA-3 + AZD7762 = compound: C1=CC=C2C(=C1)C=CC(=C2SSC3=C(C=CC4=CC=CC=C43)O)O [IPA-3] + NC(=O)Nc1cc(-c2cccc(F)c2)sc1C(=O)N[C@H]1CCCNC1 [AZD7762] (partner 0.2 µM)
Summary of the method: as §1

| Cell Line | relative viability (RAF265 + Olaparib; first compound 0.01 µM) | relative viability (RAF265 + Olaparib; first compound 0.03162 µM) | relative viability (RAF265 + Olaparib; first compound 0.1 µM) | relative viability (RAF265 + Olaparib; first compound 0.3162 µM) | relative viability (RAF265 + Olaparib; first compound 1 µM) | relative viability (Doramapimod + AZD7762; first compound 0.02 µM) | relative viability (Doramapimod + AZD7762; first compound 0.06325 µM) | relative viability (Doramapimod + AZD7762; first compound 0.2 µM) | relative viability (Doramapimod + AZD7762; first compound 0.6325 µM) | relative viability (Doramapimod + AZD7762; first compound 2 µM) | relative viability (IPA-3 + Dasatinib; first compound 0.2 µM) | relative viability (IPA-3 + Dasatinib; first compound 0.6325 µM) | relative viability (IPA-3 + Dasatinib; first compound 2 µM) | relative viability (IPA-3 + Dasatinib; first compound 6.325 µM) | relative viability (IPA-3 + Dasatinib; first compound 20 µM) | relative viability (IPA-3 + AZD7762; first compound 0.2 µM) | relative viability (IPA-3 + AZD7762; first compound 0.6325 µM) | relative viability (IPA-3 + AZD7762; first compound 2 µM) | relative viability (IPA-3 + AZD7762; first compound 6.325 µM) | relative viability (IPA-3 + AZD7762; first compound 20 µM) |
| --- | --- | --- | --- | --- | --- | --- | --- | --- | --- | --- | --- | --- | --- | --- | --- | --- | --- | --- | --- | --- |
| NCI-H2170 | 0.58 | 0.485 | 0.596 | 0.438 | 0.405 | 0.828 | 0.948 | 0.889 | 1.07 | 0.851 | 0.573 | 0.339 | 0.467 | 0.614 | 0.613 | 1.1 | 0.826 | 0.78 | 0.795 | 0.919 |
| HCC-366 | 0.388 | 0.38 | 0.452 | 0.397 | 0.239 | 0.387 | 0.271 | 0.33 | 0.34 | 0.213 | 0.892 | 0.613 | 0.604 | 0.656 | 0.679 | 0.443 | 0.337 | 0.334 | 0.432 | 0.316 |
| NCI-H2347 | 0.644 | 0.606 | 0.57 | 0.523 | 0.384 | 0.733 | 0.831 | 0.711 | 0.757 | 0.781 | 0.357 | 0.305 | 0.336 | 0.41 | 0.336 | 0.789 | 0.604 | 0.777 | 0.738 | 0.904 |
| COR-L 105 | 0.727 | 0.618 | 0.703 | 0.772 | 0.485 | – | – | – | – | – | 0.401 | 0.34 | 0.305 | 0.332 | 0.272 | – | – | – | – | – |
| 201T | 0.839 | 0.804 | 0.887 | 0.824 | 0.828 | 0.516 | 0.562 | 0.447 | 0.504 | 0.341 | 0.576 | 0.57 | 0.604 | 0.616 | 0.65 | 0.641 | 0.584 | 0.724 | 0.699 | 0.828 |
| NCI-H2126 | 0.942 | 0.907 | 0.901 | 0.818 | 0.724 | 0.865 | 1.02 | 0.942 | 1.02 | 1.04 | 0.709 | 0.58 | 0.68 | 0.633 | 0.545 | 1.05 | 0.974 | 1 | 0.958 | 1.05 |
| LC-2-ad | 0.696 | 0.769 | 0.921 | 0.904 | 0.636 | 0.826 | 0.916 | 0.874 | 0.988 | 0.84 | 0.616 | 0.537 | 0.662 | 0.611 | 0.615 | 0.896 | 0.873 | 0.899 | 0.897 | 0.96 |
| NCI-H2085 | 0.954 | 0.723 | 0.841 | 0.854 | 0.76 | 1.07 | 0.978 | 1.01 | 1.08 | 1.02 | 0.224 | 0.256 | 0.267 | 0.23 | 0.266 | 1.11 | 0.956 | 1.02 | 0.893 | 1.21 |
| NCI-H358 | 0.749 | 0.489 | 0.403 | 0.286 | 0.16 | 0.486 | 0.522 | 0.438 | 0.363 | 0.38 | 0.219 | 0.145 | 0.186 | 0.213 | 0.158 | 0.618 | 0.566 | 0.5 | 0.508 | 0.48 |
| H3255 | 0.589 | 0.568 | 0.538 | – | 0.454 | 1.01 | 1 | 0.972 | 0.956 | 0.762 | 0.387 | 0.249 | 0.428 | 0.335 | 0.284 | 1.03 | 0.919 | 0.865 | 0.912 | 1 |
| NCI-H2228 | 0.915 | 0.691 | 0.726 | 0.291 | 0.246 | – | – | – | – | – | 0.571 | 0.51 | 0.529 | 0.62 | 0.557 | – | – | – | – | – |
| CAL-12T | 0.84 | 0.645 | 0.677 | 0.592 | 0.593 | 0.675 | 0.765 | 0.696 | 0.596 | 0.535 | 0.627 | 0.418 | 0.379 | 0.409 | 0.524 | 0.634 | 0.662 | 0.661 | 0.629 | 0.686 |
| A-427 | 0.831 | 0.604 | 0.712 | 0.459 | 0.29 | 0.77 | 0.732 | 0.743 | – | 0.561 | 0.682 | 0.632 | 0.634 | 0.713 | 0.72 | 0.902 | 0.701 | 0.731 | 0.706 | 0.772 |
| HARA | 0.859 | 0.871 | 0.812 | 0.65 | 0.438 | 0.341 | 0.235 | 0.397 | 0.536 | 0.213 | 0.264 | 0.245 | 0.286 | 0.348 | 0.277 | 0.341 | 0.324 | 0.339 | 1.04 | 0.273 |
| NCI-H1793 | 0.898 | 0.755 | 0.724 | 0.382 | 0.268 | 0.381 | 0.326 | 0.523 | 0.321 | 0.243 | 0.442 | 0.325 | 0.362 | 0.381 | 0.43 | 0.56 | 0.526 | 0.424 | 0.641 | 0.527 |
| NCI-H1623 | – | – | – | – | – | – | – | – | – | – | 0.509 | 0.579 | 0.561 | 0.546 | 0.617 | – | – | – | – | – |
| NCI-H2009 | 0.785 | 0.594 | 0.603 | 0.671 | 0.579 | – | – | – | – | – | 0.346 | 0.307 | 0.287 | 0.295 | 0.19 | – | – | – | – | – |
| ABC-1 | 0.919 | 0.649 | 0.952 | 1.07 | 0.791 | 0.761 | 0.674 | 0.874 | 0.794 | 0.674 | 0.666 | 0.477 | 0.536 | 0.708 | 0.58 | 0.888 | 0.766 | 0.737 | 0.992 | 0.965 |
